One series has as its system HEL cells. Also on record: method as in PMID 37509516. The note with it: cited from earlier work; for pIC50: 24 h, read-out: IC50 (cytotoxicity).
The subject of the next series is HL-60 cells. Also on record: method as in PMID 37509516. The note with it: cited from earlier work; for pIC50: HL-60, 24 h, read-out: IC50 (cytotoxicity); for effect on viability: HL-60.
In series [1] the target is serotonin 5-HT2A receptor. The note with it: cited from earlier work.
For series [2], the system named is AML cell lines (HL-60, HEL, THP-1, K562). The series can be described thus: alamarBlue cell viability assay, AML cell line panel (serotonin receptor inhibitors). The note with it: 24 h; for effects on AML cell viability: increasing concentrations. The class given is cell-based, human. Here is the method: The alamarBlue assay was performed to assess cell viability in presence of chemical inhibitors. A total of 50,000 cells per well were seeded in a 96-wells plate in a volume of 100 μL of complete medium together with 10 μL of 10× concentrated inhibitor solution and then incubated for either 24 or 72 h. Each experimental condition was performed in technical quadruplicates, using cells treated with equal amounts of DMSO vehicle as control and medium alone as background. After incubation, alamarBlue was added to each well at a final concentration of 0.15 mg/mL. The fluorescence of the samples was measured 24 h later using a Spark 10 M Multimode Plate Reader (Tecan, Switzerland) with excitation and emission wavelengths of 535 nm and 590 nm, respectively. For dose–response curve fitting, fluorescence values were normalized according to the following formula:Viability (%) = [(sample mean fluorescence)/(DMSO control mean fluorescence)] ∗ 100 […]
Supplementary figure S3: Effects of serotonin receptor inhibitors on AML cell lines viability.
AML cells were treated with increasing concentration of the indicated inhibitor for 24 hours followed by alamarBlue viability assay for additional 24 hours. Experiments were run in quadruplicates. Data are the mean ± SEM of 4 or more experiments interpolated as [inhibitor] vs. % viability. […]
For orientation: Resazurin is reduced to fluorescent resorufin, in cell work by metabolically active cells.

pIC50, pKi: −log10 of the molar value.

What is called pIC50 is −log10 of the IC50, conventionally taken in molar units. As to `O=c1c2ccccc2[nH]c(=S)n1CCN1CCC(=C(c2ccc(F)cc2)c2ccc(F)cc2)CC1` [R59949], the pIC50 was 4.10 in the series with HEL cells and 4.14 in the series on HL-60 cells.
On to `Cc1nc2sccn2c(=O)c1CCN1CCC(=C(c2ccccc2)c2ccc(F)cc2)CC1` [R59022], for which the negative logarithm of the IC50 (pIC50) in the series on HEL cells was 4.31; with HL-60 cells, 4.49.
As for `O=C1/C(=C/C=C/c2ccco2)SC(=S)N1NS(=O)(=O)c1ccccc1` [CU-3], the effect on viability entry in the series on HEL cells and in the series with HL-60 cells was “did not significantly affect viability” throughout.
One may read the pKi as the negative decadic logarithm of the Ki, by convention in mol/L. Regarding `O=C(c1ccc(F)cc1)C1CCN(CCn2c(=S)[nH]c3ccccc3c2=O)CC1` [altanserin], the pKi in series [1] was 9.89. In series [2], the “effects on AML cell viability” value is “negligible effects”.
As to `Cc1nc2n(c(=O)c1CCN1CCC(c3noc4cc(F)ccc34)CC1)CCCC2` [risperidone], the “effects on AML cell viability” value in series [2] is on record as “negligible effects”.
Turning to `CCN(CC)CCNC(=O)c1cc(Cl)c(N)cc1OC` [metoclopramide], the “highest reduction in viability” value in series [2] (100 μM) came to 11%. In addition, the “effects on AML cell viability” value in series [2] is recorded as “negligible effects”.
As for `Cc1ccc2c(C(=O)CN3CCN(C(=O)c4ccco4)CC3)c(C)[nH]c2c1` [AMB639752], the effect on viability result in the series with HEL cells and in the series on HL-60 cells was “did not significantly affect viability” throughout.
